Measurements as given in BigSolDB 2.1.

CCCSc1ccc2nc(NC(=O)OC)[nH]c2c1
solubility (mole fraction)
Details | in acetone | in ethanol | in ethyl acetate | in isobutyl acetate | in isopropanol | in methanol | in n-butanol | in n-butyl acetate | in n-propanol | in n-propyl acetate
278.15 K | 0.00148 | 5.59e-05 | 0.00053 | 0.000491 | 9.89e-05 | 9.62e-05 | 0.00021 | 0.000553 | 0.00017 | 0.000468
283.15 K | 0.00173 | 7.25e-05 | 0.000596 | 0.000542 | 0.000128 | 0.000114 | 0.000254 | 0.000609 | 0.000192 | 0.00054
288.15 K | 0.00204 | 9.39e-05 | 0.000688 | 0.000594 | 0.000156 | 0.000133 | 0.000298 | 0.000691 | 0.00023 | 0.000598
293.15 K | 0.00253 | 0.00011 | 0.000805 | 0.000671 | 0.000187 | 0.000157 | 0.000343 | 0.000783 | 0.000276 | 0.000673
298.15 K | 0.00302 | 0.00014 | 0.000925 | 0.000749 | 0.000234 | 0.000174 | 0.000402 | 0.000873 | 0.000325 | 0.000777
303.15 K | 0.00349 | 0.000182 | 0.00103 | 0.000799 | 0.000272 | 0.000205 | 0.000473 | 0.000983 | 0.000371 | 0.000858
308.15 K | 0.00389 | 0.000234 | 0.00119 | 0.000873 | 0.000328 | 0.000257 | 0.000558 | 0.0011 | 0.000423 | 0.000962
313.15 K | 0.00442 | 0.000297 | 0.00133 | 0.000964 | 0.000394 | 0.000298 | 0.00063 | 0.0012 | 0.000488 | 0.00106
318.15 K | 0.00528 | 0.000364 | 0.0015 | 0.00109 | 0.000456 | 0.000363 | 0.000738 | 0.00132 | 0.000569 | 0.00117
323.15 K | 0.00589 | 0.000452 | 0.00167 | 0.00119 | 0.000553 | 0.000428 | 0.000829 | 0.00146 | 0.000624 | 0.0013
